Test results from PMC4854315, “Discovery of a novel allosteric inhibitor-binding site in ERK5: comparison with the canonical kinase hinge ATP-binding site” (Acta Crystallographica. Section D, Structural Biology, 2016).

Columns and labels:
Assay in all cases: Z'-LYTE kinase panel
Assay type in all cases: biochemical
NEK6 = biological target: T1, NEK6 (Homo sapiens, UniProt Q9HC98)
T1 construct: purchased ThermoFisher (SelectScreen, Z'-LYTE)
Description: (§1) Compounds 2, 3 and 5 were tested for activity against the 225 kinases in the ThermoFisher standard kinase panel. The standard Z′-LYTE assay protocol (ThermoFisher) was used to measure the percentage inhibition at 10 µM compound concentration (details are provided in the supporting information).

PRKCD (PKC delta) = biological target: T2, PRKCD (PKC delta) (Homo sapiens, UniProt Q05655)
T2 construct: purchased ThermoFisher (SelectScreen, Z'-LYTE)
Description: as §1

PAK4 = biological target: T3, PAK4 (Homo sapiens, UniProt O96013)
T3 construct: purchased ThermoFisher (SelectScreen, Z'-LYTE)
Description: as §1

STK22D (TSSK1) = biological target: T4, STK22D (TSSK1) (Homo sapiens, UniProt Q9BXA7)
T4 construct: purchased ThermoFisher (SelectScreen, Z'-LYTE)
T4 sequence (Q9BXA7 1-367): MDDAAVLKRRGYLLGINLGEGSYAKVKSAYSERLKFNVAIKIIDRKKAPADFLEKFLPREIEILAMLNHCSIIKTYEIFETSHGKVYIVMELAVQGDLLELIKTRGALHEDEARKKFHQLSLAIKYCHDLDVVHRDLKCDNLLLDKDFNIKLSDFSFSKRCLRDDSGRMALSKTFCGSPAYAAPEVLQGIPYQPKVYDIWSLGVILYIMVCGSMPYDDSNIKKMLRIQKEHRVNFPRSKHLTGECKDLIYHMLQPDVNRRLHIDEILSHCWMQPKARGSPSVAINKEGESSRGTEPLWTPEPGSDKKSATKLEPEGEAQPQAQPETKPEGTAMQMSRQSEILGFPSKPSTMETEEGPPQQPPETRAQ
Description: as §1

CHEK1 (CHK1) = biological target: T5, CHEK1 (CHK1) (Homo sapiens, UniProt O14757)
T5 construct: purchased ThermoFisher (SelectScreen, Z'-LYTE)
T5 sequence (O14757 1-476): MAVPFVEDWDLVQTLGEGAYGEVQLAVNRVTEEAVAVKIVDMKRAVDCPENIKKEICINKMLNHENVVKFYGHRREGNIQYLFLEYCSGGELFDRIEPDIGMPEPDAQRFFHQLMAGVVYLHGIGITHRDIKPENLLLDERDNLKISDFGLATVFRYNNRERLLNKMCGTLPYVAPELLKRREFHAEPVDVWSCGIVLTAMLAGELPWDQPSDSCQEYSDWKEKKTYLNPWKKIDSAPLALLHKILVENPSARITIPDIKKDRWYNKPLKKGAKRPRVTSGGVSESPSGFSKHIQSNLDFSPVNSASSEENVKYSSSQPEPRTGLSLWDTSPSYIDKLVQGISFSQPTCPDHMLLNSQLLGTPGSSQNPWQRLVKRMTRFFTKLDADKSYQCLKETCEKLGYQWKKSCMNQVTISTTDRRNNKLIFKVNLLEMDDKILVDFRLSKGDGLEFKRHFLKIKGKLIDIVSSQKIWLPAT
Description: as §1

SGK2 = biological target: T6, SGK2 (Homo sapiens, UniProt Q9HBY8)
T6 construct: purchased ThermoFisher (SelectScreen, Z'-LYTE)
T6 sequence (Q9HBY8 1-367): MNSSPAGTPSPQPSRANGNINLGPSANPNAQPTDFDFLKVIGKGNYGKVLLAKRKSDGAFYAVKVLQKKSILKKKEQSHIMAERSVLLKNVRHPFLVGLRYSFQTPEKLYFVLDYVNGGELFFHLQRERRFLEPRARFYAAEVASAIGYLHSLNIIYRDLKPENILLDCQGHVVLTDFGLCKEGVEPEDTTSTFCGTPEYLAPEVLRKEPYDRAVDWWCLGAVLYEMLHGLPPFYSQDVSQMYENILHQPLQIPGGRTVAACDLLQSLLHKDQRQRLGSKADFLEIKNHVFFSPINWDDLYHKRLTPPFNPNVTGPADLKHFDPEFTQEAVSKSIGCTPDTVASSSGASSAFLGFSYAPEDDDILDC
Description: as §1

PRKD1 (PKC mu) = biological target: T7, PRKD1 (PKC mu) (Homo sapiens, UniProt Q15139)
T7 construct: purchased ThermoFisher (SelectScreen, Z'-LYTE)
T7 sequence (Q15139 1-912): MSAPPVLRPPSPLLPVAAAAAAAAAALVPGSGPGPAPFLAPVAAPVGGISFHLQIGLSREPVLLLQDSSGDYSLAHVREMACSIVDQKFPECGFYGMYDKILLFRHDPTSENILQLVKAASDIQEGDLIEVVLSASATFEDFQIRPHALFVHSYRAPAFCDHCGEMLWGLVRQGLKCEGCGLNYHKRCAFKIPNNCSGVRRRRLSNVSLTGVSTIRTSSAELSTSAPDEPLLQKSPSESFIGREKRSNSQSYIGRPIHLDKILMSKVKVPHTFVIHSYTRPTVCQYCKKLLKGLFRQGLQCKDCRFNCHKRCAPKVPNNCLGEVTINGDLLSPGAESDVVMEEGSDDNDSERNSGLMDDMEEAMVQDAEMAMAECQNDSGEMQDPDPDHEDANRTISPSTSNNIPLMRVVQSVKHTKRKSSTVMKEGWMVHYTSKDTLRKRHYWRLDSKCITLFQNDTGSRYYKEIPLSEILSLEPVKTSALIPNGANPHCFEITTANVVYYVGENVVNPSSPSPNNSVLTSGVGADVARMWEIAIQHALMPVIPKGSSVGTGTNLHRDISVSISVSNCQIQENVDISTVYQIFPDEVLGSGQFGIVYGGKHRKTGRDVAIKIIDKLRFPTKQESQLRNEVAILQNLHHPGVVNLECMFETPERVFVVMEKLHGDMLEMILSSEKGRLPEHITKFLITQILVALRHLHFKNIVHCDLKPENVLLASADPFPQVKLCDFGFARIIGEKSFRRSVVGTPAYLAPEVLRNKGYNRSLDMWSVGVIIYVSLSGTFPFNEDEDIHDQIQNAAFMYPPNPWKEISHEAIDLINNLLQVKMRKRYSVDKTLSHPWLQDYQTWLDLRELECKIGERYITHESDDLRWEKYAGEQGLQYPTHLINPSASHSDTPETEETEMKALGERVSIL
Description: as §1

SGK (SGK1) = biological target: T8, SGK (SGK1) (Homo sapiens, UniProt O00141)
T8 construct: purchased ThermoFisher (SelectScreen, Z'-LYTE)
T8 sequence (O00141 1-431): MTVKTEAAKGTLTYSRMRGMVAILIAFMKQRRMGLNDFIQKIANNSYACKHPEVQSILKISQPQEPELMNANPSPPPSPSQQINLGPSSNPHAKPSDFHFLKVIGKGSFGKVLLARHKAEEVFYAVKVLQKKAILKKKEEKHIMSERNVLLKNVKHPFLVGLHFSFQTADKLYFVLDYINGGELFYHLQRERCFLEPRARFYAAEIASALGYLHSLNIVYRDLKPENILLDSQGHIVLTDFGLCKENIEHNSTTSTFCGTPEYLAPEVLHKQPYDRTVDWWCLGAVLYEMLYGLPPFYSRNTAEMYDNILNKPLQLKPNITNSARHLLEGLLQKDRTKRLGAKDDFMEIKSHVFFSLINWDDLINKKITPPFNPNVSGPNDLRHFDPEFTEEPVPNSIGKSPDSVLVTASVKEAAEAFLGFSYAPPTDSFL
Description: as §1

T2 sequence (Q05655 whole entry): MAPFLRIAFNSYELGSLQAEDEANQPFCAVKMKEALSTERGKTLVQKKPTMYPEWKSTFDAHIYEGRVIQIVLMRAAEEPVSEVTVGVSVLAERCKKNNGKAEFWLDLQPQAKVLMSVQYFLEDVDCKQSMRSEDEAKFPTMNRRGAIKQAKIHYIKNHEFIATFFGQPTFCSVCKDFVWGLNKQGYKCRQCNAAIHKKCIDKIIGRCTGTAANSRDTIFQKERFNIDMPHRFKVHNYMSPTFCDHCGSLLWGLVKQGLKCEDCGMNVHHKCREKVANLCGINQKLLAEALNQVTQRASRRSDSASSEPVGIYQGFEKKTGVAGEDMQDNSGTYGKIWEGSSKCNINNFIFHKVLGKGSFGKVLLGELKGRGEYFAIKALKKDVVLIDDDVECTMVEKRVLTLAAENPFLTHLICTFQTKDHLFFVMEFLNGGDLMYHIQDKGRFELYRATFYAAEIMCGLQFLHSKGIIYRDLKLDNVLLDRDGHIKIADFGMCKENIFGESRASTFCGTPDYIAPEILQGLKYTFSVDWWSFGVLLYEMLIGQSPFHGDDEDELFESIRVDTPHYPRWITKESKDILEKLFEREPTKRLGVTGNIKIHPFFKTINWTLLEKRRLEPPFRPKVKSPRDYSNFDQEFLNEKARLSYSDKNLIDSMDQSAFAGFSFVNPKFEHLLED
T1 sequence (Q9HC98 whole entry): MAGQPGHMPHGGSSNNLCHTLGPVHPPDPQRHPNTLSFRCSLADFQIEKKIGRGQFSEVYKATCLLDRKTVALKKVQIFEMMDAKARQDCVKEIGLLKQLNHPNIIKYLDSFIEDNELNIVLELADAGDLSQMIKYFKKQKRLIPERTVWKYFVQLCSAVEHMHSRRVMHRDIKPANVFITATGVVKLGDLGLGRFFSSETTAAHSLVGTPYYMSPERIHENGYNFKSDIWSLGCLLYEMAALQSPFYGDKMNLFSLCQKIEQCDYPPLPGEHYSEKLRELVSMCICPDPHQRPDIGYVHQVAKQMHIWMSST
T3 sequence (O96013 whole entry): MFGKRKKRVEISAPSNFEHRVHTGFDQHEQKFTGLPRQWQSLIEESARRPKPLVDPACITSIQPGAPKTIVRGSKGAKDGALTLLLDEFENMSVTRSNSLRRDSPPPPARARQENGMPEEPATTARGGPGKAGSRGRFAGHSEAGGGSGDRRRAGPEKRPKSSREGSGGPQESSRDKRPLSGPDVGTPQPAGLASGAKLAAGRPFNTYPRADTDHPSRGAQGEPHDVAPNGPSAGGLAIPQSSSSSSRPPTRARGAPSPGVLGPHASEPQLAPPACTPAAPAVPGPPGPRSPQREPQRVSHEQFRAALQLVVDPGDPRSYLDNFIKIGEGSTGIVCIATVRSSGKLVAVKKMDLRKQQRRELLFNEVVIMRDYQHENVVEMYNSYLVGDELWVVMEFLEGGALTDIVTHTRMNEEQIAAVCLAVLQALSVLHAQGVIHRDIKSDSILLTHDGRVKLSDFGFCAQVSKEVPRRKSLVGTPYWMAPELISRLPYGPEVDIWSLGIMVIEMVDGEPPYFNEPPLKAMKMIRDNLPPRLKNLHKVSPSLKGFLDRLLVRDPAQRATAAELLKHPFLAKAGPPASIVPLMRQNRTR

Cc1ncc(-c2nc(Nc3ccc(C(=O)NCCN4CCCCC4)cc3)ncc2F)n1C(C)C [Compound 3]
inhibition at 10 µM (NEK6): 12% | inhibition at 10 µM (PRKCD (PKC delta)): 97% | inhibition at 10 µM (PAK4): 81% | inhibition at 10 µM (STK22D (TSSK1)): 81% | inhibition at 10 µM (CHEK1 (CHK1)): 87% | inhibition at 10 µM (SGK2): 66% | inhibition at 10 µM (PRKD1 (PKC mu)): 93% | inhibition at 10 µM (SGK (SGK1)): 91%

Cc1cc(Nc2nc(N)nn2C(=O)NC(C)C)ccc1Cl [Compound 5]
inhibition at 10 µM (NEK6): 3% | inhibition at 10 µM (PRKCD (PKC delta)): 1.15% | inhibition at 10 µM (PAK4): 41% | inhibition at 10 µM (STK22D (TSSK1)): 21% | inhibition at 10 µM (CHEK1 (CHK1)): 14% | inhibition at 10 µM (SGK2): -20% | inhibition at 10 µM (PRKD1 (PKC mu)): 15% | inhibition at 10 µM (SGK (SGK1)): 9%

XMD8-92 [Compound 2, reference compound]
NEK6 % Inhibition (NEK6; 10 µM compound, ATP Km app): 68% | PRKCD (PKC delta) % Inhibition (PRKCD (PKC delta); 10 µM compound, ATP Km app): -3.55% | PAK4 % Inhibition (PAK4; 10 µM compound, ATP Km app): 26% | STK22D (TSSK1) % Inhibition (STK22D (TSSK1); 10 µM compound, ATP Km app): 11% | CHEK1 (CHK1) % Inhibition (CHEK1 (CHK1); 10 µM compound, ATP Km app): 8% | SGK2 % Inhibition (SGK2; 10 µM compound, ATP Km app): 68% | PRKD1 (PKC mu) % Inhibition (PRKD1 (PKC mu); 10 µM compound, ATP Km app): 17% | SGK (SGK1) % Inhibition (SGK (SGK1); 10 µM compound, ATP Km app): 66%
